Results taken from PubChem BioAssay (NCI).
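GI50 is the concentration that inhibits growth by half. TGI is the concentration that stops growth completely.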

Key:
Assay in all cases: NCI anticancer screen, dose series, 384-well format
ACHN renal = tested on: ACHN renal
A549 NSCLC = tested on: A549 NSCLC
SF-295 CNS = tested on: SF-295 CNS
OVCAR-3 ovarian = tested on: OVCAR-3 ovarian
CCRF-CEM leukemia = tested on: CCRF-CEM leukemia
T-47D breast = tested on: T-47D breast
DU-145 prostate = tested on: DU-145 prostate
UO-31 renal = tested on: UO-31 renal
EKVX NSCLC = tested on: EKVX NSCLC
U251 glioblastoma = tested on: U251 glioblastoma
HS 578T breast = tested on: HS 578T breast
SW-620 colon = tested on: SW-620 colon
NCI-H460 NSCLC = tested on: NCI-H460 NSCLC
A498 renal = tested on: A498 renal
SK-OV-3 ovarian = tested on: SK-OV-3 ovarian
LOX IMVI melanoma = tested on: LOX IMVI melanoma
K-562 leukemia = tested on: K-562 leukemia
HL-60(TB) leukemia = tested on: HL-60(TB) leukemia
PC-3 prostate = tested on: PC-3 prostate
OVCAR-4 ovarian = tested on: OVCAR-4 ovarian
HT29 colon = tested on: HT29 colon
HCT-15 colon = tested on: HCT-15 colon
TK-10 renal = tested on: TK-10 renal
SK-MEL-28 melanoma = tested on: SK-MEL-28 melanoma
KM12 colon = tested on: KM12 colon
SF-539 CNS = tested on: SF-539 CNS
MDA-MB-435 melanoma = tested on: MDA-MB-435 melanoma
MOLT-4 leukemia = tested on: MOLT-4 leukemia
COLO 205 colon = tested on: COLO 205 colon
SR leukemia = tested on: SR leukemia
RPMI-8226 leukemia = tested on: RPMI-8226 leukemia
HCC-2998 colon = tested on: HCC-2998 colon
OVCAR-5 ovarian = tested on: OVCAR-5 ovarian
HOP-62 NSCLC = tested on: HOP-62 NSCLC
RXF 393 renal = tested on: RXF 393 renal
BT-549 breast = tested on: BT-549 breast
IGROV1 ovarian = tested on: IGROV1 ovarian
786-0 renal = tested on: 786-0 renal
NCI/ADR-RES ovarian = tested on: NCI/ADR-RES ovarian
NCI-H522 lung = tested on: NCI-H522 lung
SNB-75 CNS = tested on: SNB-75 CNS
SK-MEL-5 melanoma = tested on: SK-MEL-5 melanoma
UACC-62 melanoma = tested on: UACC-62 melanoma
NCI-H226 lung = tested on: NCI-H226 lung
MCF7 breast = tested on: MCF7 breast
SNB-19 CNS = tested on: SNB-19 CNS
HCT-116 colon = tested on: HCT-116 colon
OVCAR-8 ovarian = tested on: OVCAR-8 ovarian
SN12C renal = tested on: SN12C renal
SF-268 CNS = tested on: SF-268 CNS
NCI-H23 lung = tested on: NCI-H23 lung
HOP-92 NSCLC = tested on: HOP-92 NSCLC
CAKI-1 renal = tested on: CAKI-1 renal
MDA-MB-468 breast = tested on: MDA-MB-468 breast
UACC-257 melanoma = tested on: UACC-257 melanoma
MDA-MB-231 breast = tested on: MDA-MB-231 breast
NCI-H322M lung = tested on: NCI-H322M lung
M14 melanoma = tested on: M14 melanoma
MALME-3M melanoma = tested on: MALME-3M melanoma

`CC1CCC(n2c3cnccc3c3cnc(Nc4ccc5c(n4)CCN(C(=O)CO)C5)nc32)CC1` (stereo not given) was tested, and the GI50 (ACHN renal) was 2.59 µM, the TGI (ACHN renal) was greater than 21.9 µM and the GI50 (A549 NSCLC) was 2.15 µM. For the same compound, the TGI (A549 NSCLC) was greater than 100 µM, the TGI (SF-295 CNS) was greater than 73.9 µM and the GI50 (OVCAR-3 ovarian) was 5.68 µM. For the same compound, the TGI (OVCAR-3 ovarian) was 12.6 µM, the GI50 (CCRF-CEM leukemia) was 0.638 µM and the TGI (CCRF-CEM leukemia) was 2.31 µM. For the same compound, the GI50 (T-47D breast) was greater than 100 µM, the TGI (T-47D breast) was greater than 100 µM and the GI50 (DU-145 prostate) was 7.86 µM. For the same compound, the TGI (DU-145 prostate) was 42.2 µM, the GI50 (UO-31 renal) was 15.1 µM and the TGI (UO-31 renal) was greater than 100 µM. It also gave a TGI (EKVX NSCLC) greater than 100 µM, a GI50 (U251 glioblastoma) of 7.16 µM and a TGI (U251 glioblastoma) greater than 100 µM. The GI50 (HS 578T breast) was 18.3 µM, the TGI (HS 578T breast) was greater than 100 µM and the GI50 (SW-620 colon) was 1.05 µM. It also gave a TGI (SW-620 colon) of 14.2 µM, a GI50 (NCI-H460 NSCLC) of 0.749 µM and a TGI (NCI-H460 NSCLC) of 4.74 µM. It also gave a GI50 (A498 renal) of 1.78 µM, a TGI (A498 renal) of 9.42 µM and a GI50 (SK-OV-3 ovarian) of 21.6 µM. For the same compound, the TGI (SK-OV-3 ovarian) was greater than 100 µM, the GI50 (LOX IMVI melanoma) was 2.4 µM and the TGI (LOX IMVI melanoma) was greater than 100 µM. The GI50 (K-562 leukemia) was 3.64 µM, the TGI (K-562 leukemia) was greater than 100 µM and the GI50 (HL-60(TB) leukemia) was 0.286 µM. The TGI (HL-60(TB) leukemia) was 1.75 µM, the GI50 (PC-3 prostate) was 7.58 µM and the TGI (PC-3 prostate) was greater than 81.2 µM. The GI50 (OVCAR-4 ovarian) was 15.1 µM, the TGI (OVCAR-4 ovarian) was greater than 40 µM and the GI50 (HT29 colon) was 6.05 µM. It also gave a TGI (HT29 colon) greater than 100 µM, a GI50 (HCT-15 colon) of 0.656 µM and a TGI (HCT-15 colon) greater than 100 µM. The GI50 (TK-10 renal) was 5.16 µM, the TGI (TK-10 renal) was greater than 100 µM and the GI50 (SK-MEL-28 melanoma) was 11.9 µM. It also gave a TGI (SK-MEL-28 melanoma) greater than 100 µM, a GI50 (KM12 colon) of 0.293 µM and a TGI (KM12 colon) of 4.05 µM. For the same compound, the GI50 (SF-539 CNS) was 5.87 µM, the TGI (SF-539 CNS) was greater than 100 µM and the GI50 (MDA-MB-435 melanoma) was 8.55 µM. The TGI (MDA-MB-435 melanoma) was greater than 100 µM, the GI50 (MOLT-4 leukemia) was 0.278 µM and the TGI (MOLT-4 leukemia) was 2.71 µM. It also gave a GI50 (COLO 205 colon) of 0.846 µM, a GI50 (SR leukemia) of 0.316 µM and a TGI (SR leukemia) of 0.829 µM. For the same compound, the GI50 (RPMI-8226 leukemia) was 0.253 µM, the TGI (RPMI-8226 leukemia) was 1.71 µM and the GI50 (HCC-2998 colon) was 1.69 µM. It also gave a TGI (HCC-2998 colon) greater than 100 µM, a GI50 (OVCAR-5 ovarian) of 2.23 µM and a TGI (OVCAR-5 ovarian) greater than 100 µM. The GI50 (HOP-62 NSCLC) was 3.66 µM, the TGI (HOP-62 NSCLC) was greater than 100 µM and the GI50 (RXF 393 renal) was greater than 20.7 µM. It also gave a TGI (RXF 393 renal) greater than 100 µM, a GI50 (BT-549 breast) of 6.54 µM and a TGI (BT-549 breast) greater than 72.4 µM. The GI50 (IGROV1 ovarian) was 8.39 µM, the TGI (IGROV1 ovarian) was greater than 100 µM and the GI50 ([…]-0 renal) was 12.4 µM. For the same compound, the TGI (786-0 renal) was 66.9 µM, the GI50 (NCI/ADR-RES ovarian) was 13.9 µM and the TGI (NCI/ADR-RES ovarian) was greater than 100 µM. The GI50 (NCI-H522 lung) was 6.06 µM, the TGI (NCI-H522 lung) was greater than 100 µM and the GI50 (SNB-75 CNS) was 4.47 µM. For the same compound, the TGI (SNB-75 CNS) was greater than 20.3 µM, the GI50 (SK-MEL-5 melanoma) was 2.36 µM and the TGI (SK-MEL-5 melanoma) was greater than 94.8 µM. For the same compound, the GI50 (UACC-62 melanoma) was 6.15 µM, the TGI (UACC-62 melanoma) was greater than 100 µM and the GI50 (NCI-H226 lung) was 9.33 µM. For the same compound, the TGI (NCI-H226 lung) was greater than 100 µM, the GI50 (MCF7 breast) was 1.04 µM and the TGI (MCF7 breast) was greater than 100 µM. It also gave a GI50 (SNB-19 CNS) of 7.56 µM, a TGI (SNB-19 CNS) greater than 100 µM and a GI50 (HCT-116 colon) of 1.69 µM. It also gave a TGI (HCT-116 colon) of 16.2 µM, a GI50 (OVCAR-8 ovarian) of 6.42 µM and a TGI (OVCAR-8 ovarian) greater than 100 µM. For the same compound, the GI50 (SN12C renal) was 16.3 µM, the TGI (SN12C renal) was greater than 100 µM and the GI50 (SF-268 CNS) was 4.47 µM. The TGI (SF-268 CNS) was 15.2 µM, the GI50 (NCI-H23 lung) was 3.4 µM and the TGI (NCI-H23 lung) was greater than 100 µM. The GI50 (HOP-92 NSCLC) was 6.32 µM, the TGI (HOP-92 NSCLC) was greater than 20.6 µM and the GI50 (CAKI-1 renal) was 1.42 µM. The TGI (CAKI-1 renal) was greater than 28 µM, the GI50 (MDA-MB-468 breast) was 13.5 µM and the TGI (MDA-MB-468 breast) was 57.8 µM. For the same compound, the GI50 (UACC-257 melanoma) was greater than 100 µM, the TGI (UACC-257 melanoma) was greater than 100 µM and the GI50 (MDA-MB-231 breast) was 2.91 µM. For the same compound, the TGI (MDA-MB-231 breast) was 14.4 µM, the GI50 (NCI-H322M lung) was 8.61 µM and the TGI (NCI-H322M lung) was greater than 26.4 µM. The GI50 (M14 melanoma) was 8.48 µM, the TGI (M14 melanoma) was greater than 100 µM and the GI50 (MALME-3M melanoma) was 19.8 µM. For the same compound, the TGI (MALME-3M melanoma) was greater than 100 µM.
